“Also recorded” adds a separate entry of the source.
Columns and labels:
57BL/6 and Plaur−/− mice = test: right kidney cross-transplantation with LPS treatment (TEM and uPAR immunostaining); type: in vivo, mouse; conditions: for foot process effacement (TEM): LPS 10 mg/kg i.p., 24 h
Procedure: Right kidney cross-transplantation: Six 57BL/6 female mice and 6 Plaur^−/− female mice in the same age and body weight ranges (7-8 weeks, 15-18 g) were randomly recruited into this study. The right kidney from Plaur^−/− mice were transplanted into 57BL/6 mice at the right side and vice versa. Kidney transplantation was performed as previously described (Coffman, T. et al, J. Immunol. 151, 425-435 (1993); Han, W. R., Murray-Segal, L. J. and Mottram, P. L. Microsurgery. 19, 272-274 (1999)). After recovery from surgery, mice were randomly treated with LPS at 10 mg/kg body weight, i.p. or same amount of PBS for control. 24 h after LPS injection, mice were sacrificed, and kidney was taken out for further analysis.
Transmission electron microscopy (TEM): TEM was performed according to the standard protocols (Sever, S. et al. J. Clin. Invest. 117, 2095-2104 (2007)).
To further confirm the role of suPAR in proteinuria development and kidney disease, cross-kidney transplantation was performed and the effect of endogenous soluble form of uPAR was examined. The right kidney was excised from normal 57BL/6, and transplanted into Plaur^−/− mice on the right side and vice versa (FIG. 3A). Mice were randomly chosen to receive lipopolysaccharide (LPS) to induce proteinuria or PBS for control after recovery from surgery. […] For the PBS treated 57BL/6 mice however, foot process effacement was not remarkable in either transplanted Plaur^−/− kidney or native 57BL/6 kidney (FIG. 1E). […] In contrast, foot process effacement was not remarkable in either native Plaur^−/− kidney or in the transplanted 57BL/6 kidney of PBS controlled mice (FIG. 1F). […] In order to determine whether suPAR is responsible for the phenomena, the sections were immunostained from both native and transplanted kidney with uPAR antibody.

αvβ3 integrin = conditions: in vivo; cited from earlier work

Compound | foot process effacement (TEM) (57BL/6 and Plaur−/− mice; 57BL/6 mice, native 57BL/6 kidney) | foot process effacement (TEM) (57BL/6 and Plaur−/− mice; 57BL/6 mice, transplanted Plaur−/− kidney) | podocyte uPAR expression (immunostaining) (57BL/6 and Plaur−/− mice; LPS treated 57BL/6 mice, native 57BL/6 kidney) | podocyte uPAR expression or deposit (immunostaining) (57BL/6 and Plaur−/− mice; LPS treated 57BL/6 mice, transplanted Plaur−/− kidney) | uPAR in podocytes (immunostaining) (57BL/6 and Plaur−/− mice; LPS treated Plaur−/− mice, native Plaur−/− kidney) | uPAR expression (immunostaining) (57BL/6 and Plaur−/− mice; LPS treated Plaur−/− mice, transplanted 57BL/6 kidney) | foot process effacement (TEM) (57BL/6 and Plaur−/− mice; Plaur−/− mice, native Plaur−/− kidney) | foot process effacement (TEM) (57BL/6 and Plaur−/− mice; Plaur−/− mice, transplanted 57BL/6 kidney) | proteinuria caused by uPAR-β3-integrin signaling (αvβ3 integrin)
lipopolysaccharide [LPS] | significant foot process effacement | massive foot process effacement | increased podocyte uPAR expression | clear uPAR expression or deposit | not any uPAR | increased uPAR expression | not | readily observed | 
CC(C)[C@@H]1NC(=O)[C@@H](Cc2ccccc2)NC(=O)[C@H](CC(=O)O)NC(=O)CNC(=O)[C@H](CCCN=C(N)N)NC1=O [cycloRGDfV] |  |  |  |  |  |  |  |  | prevented and reduced; also recorded: blocked

From patent US20110212083A1, “ROLE OF SOLUBLE UPAR IN THE PATHOGENESIS OF PROTEINURIC KIDNEY DISEASE” (University of Miami Office of Technology Transfer, priority 2008, published 2011)
